Active and inactive are the calls of the source. The calls are words filed in the database; no cut-off is given here.
What was measured:
HCT-116 [1] = assay: Antiproliferative activity against human HCT116 cells after 72 hrs by MTT assay; assay type: functional, cell-based; conditions: HCT-116, 72 h
MCF7 = assay: Antiproliferative activity against human MCF7 cells after 72 hrs by MTT assay; assay type: functional, cell-based; conditions: MCF7, 72 h
A549 = assay: Antiproliferative activity against human A549 cells after 72 hrs by MTT assay; assay type: functional, cell-based; conditions: A549, 72 h
MGC-803 = assay: Antiproliferative activity against human MGC803 cells after 72 hrs by MTT assay; assay type: functional, cell-based; conditions: MGC-803, 72 h
L02 = assay: Antiproliferative activity against human LO2 cells after 72 hrs by MTT assay; assay type: cell-based; conditions: L02, 72 h
[2] = Antiproliferative activity against human CCD-841 cells after 72 hrs by MTT assay; assay type: cell-based; conditions: CCD-841, 72 h
HaCaT = assay: Antiproliferative activity against human HaCaT cells after 72 hrs by MTT assay; assay type: cell-based
BEAS-2B = assay: Antiproliferative activity against human BEAS2B cells after 72 hrs by MTT assay; assay type: functional, cell-based
Bel-7402 = assay: Antiproliferative activity against human Bel7402 cells after 72 hrs by MTT assay; assay type: functional, cell-based; conditions: Bel-7402, 72 h
[3] = Antiproliferative activity against adriamycin-resistant human Bel7402/ADR cells after 72 hrs by MTT assay; assay type: functional; conditions: Bel-7402, 72 h
HCT-8 = assay: Antiproliferative activity against human HCT8 cells after 72 hrs by MTT assay; assay type: functional, cell-based; conditions: HCT-8, 72 h
[4] = Antiproliferative activity against taxol-resistant human HCT8/T cells after 72 hrs by MTT assay; assay type: functional; conditions: HCT-8, 72 h
HCT-116 [5] = assay: Induction of apoptosis in human HCT116 cells assessed as formation of apoptotic bodies at 0.31 to 5 uM after 24 hrs by DAPI staining-based fluorescence microscopic method; assay type: functional, cell-based
HCT-116 [6] = assay: Induction of apoptosis in human HCT116 cells assessed as necrotic cells at 0.31 uM after 72 hrs by Annexin V-FITC/propidium iodide staining-based flow cytometric analysis (reference value: 0.76%); assay type: functional
HCT-116 [7] = assay: Induction of apoptosis in human HCT116 cells assessed as late apoptotic cells at 0.31 uM after 72 hrs by Annexin V-FITC/propidium iodide staining-based flow cytometric analysis (reference value: 1.08%); assay type: functional
HCT-116 [8] = assay: Induction of apoptosis in human HCT116 cells assessed as viable cells at 0.31 uM after 72 hrs by Annexin V-FITC/propidium iodide staining-based flow cytometric analysis (reference value: 92.86%); assay type: functional; conditions: HCT-116, 72 h, read-out: Activity
HCT-116 [9] = assay: Induction of apoptosis in human HCT116 cells assessed as necrotic cells at 1.25 uM after 72 hrs by Annexin V-FITC/propidium iodide staining-based flow cytometric analysis (reference value: 0.76%); assay type: functional
HCT-116 [10] = assay: Induction of apoptosis in human HCT116 cells assessed as early apoptotic cells at 1.25 uM after 72 hrs by Annexin V-FITC/propidium iodide staining-based flow cytometric analysis (reference value: 5.30%); assay type: functional
HCT-116 [11] = assay: Induction of apoptosis in human HCT116 cells assessed as late apoptotic cells at 5 uM after 72 hrs by Annexin V-FITC/propidium iodide staining-based flow cytometric analysis (reference value: 1.08%); assay type: functional
HCT-116 [12] = assay: Induction of apoptosis in human HCT116 cells assessed as early apoptotic cells at 5 uM after 72 hrs by Annexin V-FITC/propidium iodide staining-based flow cytometric analysis (reference value: 5.30%); assay type: functional
HCT-116 [13] = assay: Disruption of mitochondrial membrane potential in human HCT116 cells assessed as intact mitochondrial membrane at 0.31 uM after 72 hrs by JC1 staining-based flow cytometry method (reference value: 0.33%); assay type: functional
HCT-116 [14] = assay: Disruption of mitochondrial membrane potential in human HCT116 cells assessed as intact mitochondrial membrane at 1.25 uM after 72 hrs by JC1 staining-based flow cytometry method (reference value: 0.33%); assay type: functional
HCT-116 [15] = assay: Disruption of mitochondrial membrane potential in human HCT116 cells assessed as collapse of mitochondrial membrane potential at 1.25 uM after 72 hrs by JC1 staining-based flow cytometry method (reference value: […]); assay type: functional
HCT-116 [16] = assay: Disruption of mitochondrial membrane potential in human HCT116 cells assessed as intact mitochondrial membrane at 5 uM after 72 hrs by JC1 staining-based flow cytometry method (reference value: 0.33%); assay type: functional
HCT-116 [17] = assay: Induction of intracellular ROS generation in human HCT116 cells at 0.31 uM after 72 hrs by DCF-DA-dye based fluorescence microscopy (reference value: 2.74%); assay type: functional
HCT-116 [18] = assay: Induction of intracellular ROS generation in human HCT116 cells at 5 uM after 72 hrs by DCF-DA-dye based fluorescence microscopy (reference value: 2.74%); assay type: functional
[19] = target: Cellular tumor antigen p53 (Homo sapiens) (UniProt P04637); assay: Activation of p53 in human HCT116 cells assessed as downregulation of Bcl2 expression up to 5 uM after 48 hrs by Western blot analysis; assay type: cell-based
[20] = target: Cellular tumor antigen p53 (Homo sapiens) (UniProt P04637); assay: Activation of p53 in human HCT116 cells assessed as upregulation of p53 expression after 48 hrs by Western blot analysis; assay type: cell-based
[21] = target: Cellular tumor antigen p53 (Homo sapiens) (UniProt P04637); assay: Activation of p53 in human HCT116 cells assessed as increase in cytochrome-c expression up to 5 uM after 48 hrs by Western blot analysis; assay type: cell-based
[22] = target: Cellular tumor antigen p53 (Homo sapiens) (UniProt P04637); assay: Activation of p53 in human HCT116 cells assessed as increase in caspase-9 level up to 5 uM after 48 hrs by Western blot analysis; assay type: cell-based
HCT-116 [23] = assay: Cytotoxicity in human HCT116 cells pretreated with DFO followed by compound addition up to 5 uM measured after 72 hrs by MTT assay; assay type: functional, cell-based
HCT-116 [24] = assay: Cytotoxicity in human HCT116 cells pretreated with Fe3+ followed by compound addition up to 5 uM measured after 72 hrs by MTT assay; assay type: functional, cell-based
HCT-116 [25] = assay: Cytotoxicity against human HCT116 cells pretreated with Mg2+ followed by compound addition up to 5 uM measured after 72 hrs by MTT assay; assay type: functional, cell-based
HCT-116 [26] = assay: Cytotoxicity against human HCT116 cells pretreated with Cu2+ followed by compound addition up to 5 uM measured after 72 hrs by MTT assay; assay type: functional, cell-based
HCT-116 [27] = assay: Induction of ferroptosis in human HCT116 cells assessed as downregulation of GPX4 expression after 48 hrs by Western blot analysis; assay type: functional, cell-based
HCT-116 [28] = assay: Induction of lipid peroxidation in human HCT116 cells assessed as increase in MDA levels up to 5 uM; assay type: functional
Mus musculus [29] = assay: Toxicity in BALB/c nude mouse xenografted with human HCT116 cells assessed as abnormality in spleen at 10 to 20 mg/kg, iv administered once per day by hematoxylin and eosin staining-based microscopic method; assay type: organism-based; conditions: in vivo
Mus musculus [30] = assay: Toxicity in BALB/c nude mouse xenografted with human HCT116 cells assessed as abnormality in lung at 10 to 20 mg/kg, iv administered once per day by hematoxylin and eosin staining-based microscopic method; assay type: organism-based; conditions: in vivo
PC-3 = assay: Antiproliferative activity against p53 deficient human PC3 cells at 0.31 to 5 uM after 72 hrs by MTT assay; assay type: functional, cell-based

Sequence of Cellular tumor antigen p53 (Homo sapiens) (P04637 whole entry, looked up): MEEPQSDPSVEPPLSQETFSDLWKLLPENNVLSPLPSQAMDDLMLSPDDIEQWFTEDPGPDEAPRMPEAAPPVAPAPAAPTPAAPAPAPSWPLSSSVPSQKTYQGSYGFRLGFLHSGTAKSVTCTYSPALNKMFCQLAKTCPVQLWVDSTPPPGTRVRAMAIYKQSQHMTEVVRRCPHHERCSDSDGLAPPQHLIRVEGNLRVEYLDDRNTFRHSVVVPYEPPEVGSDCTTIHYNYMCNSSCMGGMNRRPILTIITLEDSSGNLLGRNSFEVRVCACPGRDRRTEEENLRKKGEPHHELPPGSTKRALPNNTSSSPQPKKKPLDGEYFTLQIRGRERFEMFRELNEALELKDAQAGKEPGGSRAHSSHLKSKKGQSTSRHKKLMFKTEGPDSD

## CC(=O)N[C@H]1[C@H](O[C@H]2CC[C@]3(C)[C@H]4CC=C5[C@@H]6CC(C)(C)CC[C@]6(C(=O)OCc6cn(-c7cccc(C(C)=O)c7)nn6)CC[C@@]5(C)[C@]4(C)CC[C@H]3C2(C)C)O[C@H](CO[C@@H]2OC[C@H](O)[C@H](O)[C@@H]2O)[C@@H](O)[C@@H]1O
HCT-116 [1]
  IC50: 5.19 µM
MCF7
  IC50: 10.5 µM
A549
  IC50: 9.18 µM
MGC-803
  IC50: 7.35 µM
L02
  IC50: 33.2 µM
[2]
  IC50: 27.8 µM
HaCaT
  IC50: 37.1 µM
BEAS-2B
  IC50: 20.2 µM
Bel-7402
  IC50: 5.21 µM
[3]
  IC50: 5.83 µM
HCT-8
  IC50: 6.78 µM
[4]
  IC50: 6.05 µM
HCT-116 [5]
  Activity: Active
HCT-116 [6]
  Activity: 2.62%
HCT-116 [7]
  Activity: 12.51%
HCT-116 [8]
  viability at 0.31 µM: 78.9%
HCT-116 [9]
  Activity: 5.35%
HCT-116 [10]
  Activity: 3.42%
HCT-116 [11]
  Activity: 20.33%
HCT-116 [12]
  Activity: 39.27%
HCT-116 [13]
  Activity: 10.97%
HCT-116 [14]
  Activity: 22.64%
HCT-116 [15]
  Activity: 77.36%
HCT-116 [16]
  Activity: 40.13%
HCT-116 [17]
  Activity: 12.87%
HCT-116 [18]
  Activity: 29.71%
[19]
  Activity: Active
[20]
  Activity: Dose-dependent effect
[21]
  Activity: Active
[22]
  Activity: Active
HCT-116 [23]
  Activity: inactive
HCT-116 [24]
  Activity: Active
HCT-116 [25]
  Activity: Active
HCT-116 [26]
  Activity: Active
HCT-116 [27]
  Activity: Dose-dependent effect
HCT-116 [28]
  fold change (FC): >2
Mus musculus [29]
  Activity: Non-Toxic
Mus musculus [30]
  Activity: Non-Toxic
PC-3
  Activity: inactive

Source: ChEMBL document CHEMBL4261580, “Novel antitumor compound optimized from natural saponin Albiziabioside A induced caspase-dependent apoptosis and ferroptosis as a p53 activator through the mitochondrial pathway” (Eur J Med Chem, 2018)
